Assay results reported in patent US10941157B2, “Pesticidal compositions and uses thereof” (Gilead Apollo, LLC, priority 2015, dated 2021).
In brackets after ≈: the same amount, converted by molar mass. Where two headings read alike, the source gives them in different places.

Tests used:
[1] = system: Botrtyis cinerea (Bc); test: In vitro pathogen growth inhibition assay, Bc; format: cell-based; settings: 48 h
Outline: (§1)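 Value reported is the compound concentration reaching ≥90% growth inhibition, from OD readings at 24 and 48 h after blank subtraction, confirmed visually. Inoculum was spores diluted in 17% V8 medium, except Rs, using 1.5 mm mycelial plugs in ¼ PDB; actual compound concentration corrected via OD600.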

[2] = system: Collectotrichum graminicola (Cg); test: In vitro pathogen growth inhibition assay, Cg; format: cell-based; settings: 48 h
Outline: as §1

[3] = system: Diplodia maydis (Dm); test: In vitro pathogen growth inhibition assay, Dm; format: cell-based; settings: Stenocarpella maydis, 48 h
Outline: (§2)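 Spores of Dm, Fv and Pc were diluted in 17% V8 liquid medium; Rs used 1.5 mm mycelial plugs in ¼ PDB. Compounds from 2.5 mg/ml DMSO stocks were combined with inoculum, growth was read by OD600 at 24 and 48 h with blank subtraction, and the reported value is the concentration giving ≥90% inhibition.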

[4] = system: Fusarium moniliforme (Fm); test: In vitro pathogen growth inhibition assay, Fm; format: cell-based; settings: Fusarium verticillioides
Outline: as §1

[5] = system: Fusarium virguliforme (Fv); test: In vitro pathogen growth inhibition assay, Fv; format: cell-based
Outline: as §2

[6] = system: Phytophthora capsici (Pc); test: In vitro pathogen growth inhibition assay, Pc; format: cell-based; settings: 48 h
Outline: as §2

[7] = system: Rhizoctonia solani (Rs); test: In vitro pathogen growth inhibition assay, Rs (mycelial plugs); format: cell-based; settings: Rhizoctonia solani, 48 h, mycelial plugs
Outline: as §2

[8] = system: Septoria tritici (St); test: In vitro pathogen growth inhibition assay, St; format: cell-based; settings: Zymoseptoria tritici, 48 h
Outline: as §1

[9] = system: Blumeria graminis f. sp. hordei; test: Foliar protection test for barley powdery mildew control; format: in vivo; settings: foliar spray on Hordeum vulgare cv. Perry, inoculated 24 hours after treatment, evaluated 7 days later
Protocol: Plants (Hordeum vulgare cv. Perry) were grown for 6 days in 2-inch square pots containing Metromix 200 medium amended with fertilizer. […] After inoculation with the pathogen of Blumeria graminis f. sp. hordei, plants were kept at conditions of 20 to 22° C., 70% relative humidity, and 200 uM of light to facilitate infection and disease development. […] An atomizer was used for applying the solution onto both sides of the leaves until thoroughly wetted. […] At 24 hours after treatment, the plants were moved to a cooler chamber and inoculated by shaking well-colonized, untreated stock plants above the treated plants. This allowed producing a settling cloud of spores and resulting in uniform infection. Efficacy was evaluated in 7 days later by examining leaves for colonization and growth of mildew. Table 4 lists the results of barley powdery mildew control at a compound concentration of 10 ppm or lower.

[10] = system: Sphaerotheca fuliginea; test: Foliar protection for cucumber powdery mildew control; format: in vivo; settings: foliar spray on Cucumis sativus cv. Straight Eight, inoculated 24 hours after treatment, evaluated 7 days later
Protocol: Plants (Cucumis sativus cv. Straight Eight) were grown for 10 days in 2.5-inch square pots containing Metromix 200 medium amended with fertilizer. For propagation, plants were maintained in a growth chamber at conditions of 23 to 27° C., 16 hour light cycle, ambient humidity, and with sub-irrigation as needed. After inoculation with the pathogen of Sphaerotheca fuliginea, plants were kept at conditions of 23 to 27° C., 16 hour light cycle, 60% relative humidity, and with sub-irrigation as needed to facilitate infection and disease development. […] An atomizer was used for applying the solution onto both sides of the leaves until thoroughly wetted. […] At 24 hours after treatment, the plants were moved to a cooler chamber and inoculated by shaking well-colonized, untreated stock plants above the treated plants. This allowed producing a settling cloud of spores and resulting in uniform infection. Inoculated plants were kept near other sporulating stock plants to allow for infection of newly emerging leaves. Efficacy was evaluated in 7 days later by examining leaves for colonization and growth of mildew. Table 5 lists the results of cucumber powdery mildew control at a compound concentration of 10 ppm or lower.

[11] = system: Mycosphaerella graminicola (synthetic Septoria tritici); test: Foliar protection test for wheat septoria leaf blotch control; format: in vivo; settings: foliar spray on Triticum aestivum cv. WinterHawk, inoculated 1 hour after treatment, evaluated 16 days later
[12] = system: Fusarium graminearum; format: in vivo; settings: spray on flowering Triticum aestivum cv. Samson, inoculated 24 hours after treatment, evaluated 14 days later
[13] = system: Puccinia triticina; test: Foliar protection test for wheat leaf rust control; format: in vivo; settings: foliar application to wheat (Triticum aestivum cv. Winterhawk), evaluated 10 days later
[14] = system: Phakopsora pachyrhizi; test: Foliar protection test for Asian soybean rust control; format: in vivo; settings: foliar application to soybean (Glycine max AG4832), percent disease area evaluated 14 days later
[15] = ≥90% growth inhibition, 48 hours, vs 2% DMSO control, read-out: Compound Concentration (ppm) sufficient for ≥90% inhibition of Bc
[16] = ≥90% growth inhibition, 48 hours, vs 2% DMSO control, read-out: Compound Concentration (ppm) sufficient for ≥90% inhibition of Cg
[17] = ≥90% growth inhibition, 48 hours, vs 2% DMSO control, read-out: Compound Concentration (ppm) sufficient for ≥90% inhibition of Dm
[18] = ≥90% growth inhibition, 48 hours, vs 2% DMSO control, read-out: Compound Concentration (ppm) sufficient for ≥90% inhibition of Fm
[19] = ≥90% growth inhibition, 48 hours, vs 2% DMSO control, read-out: Compound Concentration (ppm) sufficient for ≥90% inhibition of Fv
[20] = ≥90% growth inhibition, 48 hours, vs 2% DMSO control, read-out: Compound Concentration (ppm) sufficient for ≥90% inhibition of Pc
[21] = ≥90% growth inhibition, 48 hours, vs 2% DMSO control, read-out: Compound Concentration (ppm) sufficient for ≥90% inhibition of Rs
[22] = ≥90% growth inhibition, 48 hours, vs 2% DMSO control, read-out: Compound Concentration (ppm) sufficient for ≥90% inhibition of St
[23] = ≥90% inhibition, 48 hours vs 2% DMSO control, read-out: Compound Concentration (ppm) sufficient for ≥90% inhibition of growth, Bc
[24] = ≥90% inhibition, 48 hours vs 2% DMSO control, read-out: Compound Concentration (ppm) sufficient for ≥90% inhibition of growth, Cg
[25] = ≥90% inhibition, 48 hours vs 2% DMSO control, read-out: Compound Concentration (ppm) sufficient for ≥90% inhibition of growth, Dm
[26] = ≥90% inhibition, 48 hours vs 2% DMSO control, read-out: Compound Concentration (ppm) sufficient for ≥90% inhibition of growth, Fm
[27] = ≥90% inhibition, 48 hours vs 2% DMSO control, read-out: Compound Concentration (ppm) sufficient for ≥90% inhibition of growth, Fv
[28] = ≥90% inhibition, 48 hours vs 2% DMSO control, read-out: Compound Concentration (ppm) sufficient for ≥90% inhibition of growth, Pc
[29] = ≥90% inhibition, 48 hours vs 2% DMSO control, read-out: Compound Concentration (ppm) sufficient for ≥90% inhibition of growth, Rs
[30] = ≥90% inhibition, 48 hours vs 2% DMSO control, read-out: Compound Concentration (ppm) sufficient for ≥90% inhibition of growth, St

SMILES | IC90 [1, 15] [µg/mL] | IC90 [2, 16] [µg/mL] | IC90 [3, 17] [µg/mL] | IC90 [4, 18] [µg/mL] | IC90 [5, 19] [µg/mL] | IC90 [6, 20] [µg/mL] | IC90 [7, 21] [µg/mL] | IC90 [8, 22] [µg/mL] | Barley Powdery Mildew Control at a compound concentration of 10 ppm or lower [9] | Cucumber Powdery Mildew Control at a compound concentration of 10 ppm or lower [10] | Septoria Leaf Blotch Control at a compound concentration of 25 ppm or lower [11] | Wheat Fusarium Head Blight Control at a compound concentration of 25 ppm or lower [12] | Wheat Leaf Rust Control at a compound concentration of 10 ppm or lower [13] | Asian Soybean Rust Control at a compound concentration of 25 ppm or lower [14] | IC90 [1, 23] [µg/mL] | IC90 [2, 24] [µg/mL] | IC90 [3, 25] [µg/mL] | IC90 [4, 26] [µg/mL] | IC90 [5, 27] [µg/mL] | IC90 [6, 28] [µg/mL] | other results
CCNC(=O)C(C)(C)n1c(=O)c2c(C)c(-n3nccn3)sc2n(C[C@H](O)c2cc(F)ccc2OC)c1=O [Compound I-292, (R)—N-ethyl-2-(1-(2-(5-fluoro-2-methoxyphenyl)-2-hydroxyethyl)-5-methyl-2,4-dioxo-6-(2H-1,2,3-triazol-2-yl)-1,4-dihydrothieno[2,3-d]pyrimidin-3 (2H)-yl)-2-methylpropanamide] | 2 (≈ 3.77 µM) | 2 (≈ 3.77 µM) | 2 (≈ 3.77 µM) | 0.08 (≈ 0.151 µM) | 0.4 (≈ 0.754 µM) | > 50 | 0.4 (≈ 0.754 µM) | > 50 | AA (≥85% control of barley powdery mildew) | AA (≥85% control of cucumber powdery mildew) | B (from 50 to 69% control of wheat septoria leaf blotch) | C (from 25 to 49% control of wheat fusarium head blight) | AA (≥85% control of wheat leaf rust) | B (from 50 to 69% control of Asian soybean rust) |  |  |  |  |  |  | 
COc1ccc(F)cc1[C@H](Cn1c(=O)n([C@@H](C)C(=O)NC(C)C)c(=O)c2c(C)c(-n3nccn3)sc21)OCCO [Compound I-096, (S)-2-(1-((R)-2-(5-fluoro-2-methoxyphenyl)-2-(2-hydroxyethoxy)ethyl)-5-methyl-2,4-dioxo-6-(2H-1,2,3-triazol-2-yl)-1,4-dihydrothieno[2,3-d]pyrimidin-3 (2H)-yl)-N-isopropylpropanamide] |  |  |  |  |  |  |  |  | B (from 50 to 69% control of barley powdery mildew) | AA (≥85% control of cucumber powdery mildew) | B (from 50 to 69% control of wheat septoria leaf blotch) | D (<25% control of wheat fusarium head blight) | A (from 70% to 84% control of wheat leaf rust) | A (from 70% to 84% control of Asian soybean rust) | 2 (≈ 3.48 µM) | 0.08 (≈ 0.139 µM) | 0.4 (≈ 0.696 µM) | 0.08 (≈ 0.139 µM) | 2 (≈ 3.48 µM) | 2 (≈ 3.48 µM) | IC90 [7, 29]: 0.08 µg/mL (≈ 0.139 µM); IC90 [8, 30]: ≥ 2 µg/mL
COc1ccc(F)cc1[C@H](Cn1c(=O)n(C(C)(C)C(=O)NC(C)C)c(=O)c2c(C)c(-n3nccn3)sc21)OC1CCOCC1 [Compound I-030, (R)-2-(1-(2-(5-fluoro-2-methoxyphenyl)-2-((tetrahydro-2H-pyran-4-yl)oxy)ethyl)-5-methyl-2,4-dioxo-6-(2H-1,2,3-triazol-2-yl)-1,4-dihydrothieno[2,3-d]pyrimidin-3 (2H)-yl)-N-isopropyl-2-methylpropanamide] |  |  |  |  |  |  |  |  | AA (≥85% control of barley powdery mildew) | AA (≥85% control of cucumber powdery mildew) | B (from 50 to 69% control of wheat septoria leaf blotch) | B (from 50 to 69% control of wheat fusarium head blight) | AA (≥85% control of wheat leaf rust) | A (from 70% to 84% control of Asian soybean rust) | 0.4 (≈ 0.636 µM) | 0.4 (≈ 0.636 µM) | ≥ 0.4 | 0.08 (≈ 0.127 µM) | 0.4 (≈ 0.636 µM) | 50 (≈ 79.5 µM) | IC90 [7, 29]: 0.08 µg/mL (≈ 0.127 µM); IC90 [8, 30]: ≥ 2 µg/mL
CCNC(=O)C(C)(C)n1c(=O)c2c(C)c(C(=O)OCC)sc2n(C[C@H](OCCC#N)c2cc(F)ccc2OC)c1=O [Compound I-231, (R)-ethyl-1-(2-(2-cyanoethoxy)-2-(5-fluoro-2-methoxyphenyl)ethyl)-3-(1-(ethylamino)-2-methyl-1-oxopropan-2-yl)-5-methyl-2,4-dioxo-1,2,3,4-tetrahydrothieno[2,3-d]pyrimidine-6-carboxylate] | 2 (≈ 3.4 µM) | 0.4 (≈ 0.68 µM) | 0.4 (≈ 0.68 µM) | 0.08 (≈ 0.136 µM) | 2 (≈ 3.4 µM) | > 50 | 0.08 (≈ 0.136 µM) | ≥ 10 | AA (≥85% control of barley powdery mildew) | AA (≥85% control of cucumber powdery mildew) | C (from 25 to 49% control of wheat septoria leaf blotch) | C (from 25 to 49% control of wheat fusarium head blight) | AA (≥85% control of wheat leaf rust) | A (from 70% to 84% control of Asian soybean rust) |  |  |  |  |  |  | 
CCOC(=O)c1sc2c(c1C)c(=O)n(C(C)(C)C(=O)NC(C)C)c(=O)n2C[C@H](OCCO)c1cc(F)ccc1OC [Compound I-184, (R)-ethyl-1-(2-(5-fluoro-2-methoxyphenyl)-2-(2-hydroxyethoxy)ethyl)-3-(1-(isopropylamino)-2-methyl-1-oxopropan-2-yl)-5-methyl-2,4-dioxo-1,2,3,4-tetrahydrothieno[2,3-d]pyrimidine-6-carboxylate] | 2 (≈ 3.37 µM) | 0.4 (≈ 0.674 µM) | 0.4 (≈ 0.674 µM) | 0.08 (≈ 0.135 µM) | 2 (≈ 3.37 µM) | 50 (≈ 84.2 µM) | 0.08 (≈ 0.135 µM) | > 50 | A (from 70% to 84% control of barley powdery mildew) | AA (≥85% control of cucumber powdery mildew) | C (from 25 to 49% control of wheat septoria leaf blotch) | A (from 70% to 84% control of wheat fusarium head blight) | AA (≥85% control of wheat leaf rust) | B (from 50 to 69% control of Asian soybean rust) |  |  |  |  |  |  | 
